Legend:
GAL4DmEcR-DEF = molecular target: T1, GAL4DmEcR-DEF (Drosophila melanogaster, UniProt P34021); assay type: cell-based; details: NIH3T3 cells; for sensitivity of the switch to steroid versus non-steroid ligand: DmEcR/chimeric RXR-based switch (switch 1.20)
T1 construct: The D, E, and F domains from fruit fly Drosophila melanogaster EcR; expressed in transfected cells; host or cells: mouse NIH3T3 cells
T1 sequence (P34021 330-878): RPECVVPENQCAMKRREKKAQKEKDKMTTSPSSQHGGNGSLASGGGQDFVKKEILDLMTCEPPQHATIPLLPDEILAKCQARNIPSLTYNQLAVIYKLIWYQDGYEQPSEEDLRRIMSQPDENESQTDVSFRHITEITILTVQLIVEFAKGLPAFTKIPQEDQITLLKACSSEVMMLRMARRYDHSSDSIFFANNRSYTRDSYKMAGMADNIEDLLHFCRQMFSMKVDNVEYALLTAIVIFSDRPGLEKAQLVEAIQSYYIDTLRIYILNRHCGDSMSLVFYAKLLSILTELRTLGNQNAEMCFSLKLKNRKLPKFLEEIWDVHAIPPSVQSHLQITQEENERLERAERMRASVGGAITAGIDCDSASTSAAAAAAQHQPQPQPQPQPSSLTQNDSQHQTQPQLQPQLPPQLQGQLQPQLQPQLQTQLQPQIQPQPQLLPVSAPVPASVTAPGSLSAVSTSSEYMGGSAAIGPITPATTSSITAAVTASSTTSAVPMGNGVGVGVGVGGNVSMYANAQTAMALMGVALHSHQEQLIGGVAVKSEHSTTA
Procedure: (§1) Transfections: DNAs corresponding to the various switch constructs outlined in Example 1, specifically switches 1.1 through 1.6 were transfected into mouse NIH3T3 cells (ATCC) and human A549 cells (ATCC) as follows. […] NIH3T3 cells were grown in Dulbecco's modified Eagle medium (DMEM; LifeTechnologies) and A549 cells were grown in F12K nutrient mixture (LifeTechnologies). […] The cells were harvested and reporter activity was assayed. […] Reporter Assays: Cells were harvested 48 hours after adding ligands. […] Twenty μl of lysate were assayed. […] Thus, Applicants have made the surprising discovery that a chimeric RXR ligand binding domain may be used in place of a vertebrate RXR or an invertebrate RXR in an EcR-based inducible gene expression modulation system.
(§2) This Example describes the construction of four EcR-DEF-based gene switches comprising the DEF domains from Choristoneura fumiferana (Lepidoptera), Drosophila melanogaster (Diptera), Tenebrio molitor (Coleoptera), and Amblyomma americanum (Ixodidae) fused to a GAL4 DNA binding domain. In addition, the EF domains of vertebrate RXRs, invertebrate RXRs, or invertebrate USPs from Choristoneura fumiferana USP, Drosophila melanogaster USP, Locusta migratoria USP (Orthoptera), Mus musculus RXRα (Vertebrata), a chimera between MmRXRα and LmUSP (Chimera; of switch 1.13), Amblyomma americanum RXR homolog 1 (Ixodidae), Amblyomma americanum RXR homolog 2 (Ixodidae) were fused to a VP16 activation domain. […] The cells were harvested, lysed and luciferase reporter activity was measured in the cell lysates. Total fly luciferase relative light units are presented. […] The analysis was performed in triplicate and mean luciferase counts [total relative light units (RLU)] were determined as described above.

[1] = test system: AmaEcR/chimeric RXR-based switch (switch 1.22); assay: Transactivation of pFRLuc in NIH3T3 cells, AmaEcR with chimeric RXR-EF (FIG. 8); assay type: cell-based, Amblyomma americanum; details: switch 1.22, NIH3T3 cells
Procedure: as §1
(§3) This Example describes the construction of four EcR-DEF-based gene switches comprising the DEF domains from Choristoneura fumiferana (Lepidoptera), Drosophila melanogaster (Diptera), Tenebrio molitor (Coleoptera), and Amblyomma americanum (Ixodidae) fused to a GAL4 DNA binding domain. […] The cells were harvested, lysed and luciferase reporter activity was measured in the cell lysates. […] The analysis was performed in triplicate and mean luciferase counts [total relative light units (RLU)] were determined as described above.

GAL4CfEcR-DEF [2] = assay: HsRXRβ/LmUSP chimeric RXR LBDs with GAL4CfEcR-DEF and pFRLuc in NIH3T3 cells (FIGS. 9 and 10); assay type: cell-based, Choristoneura fumiferana; details: CfEcR in combination with chimera 11, FIG. 10
Excerpt: This Example describes Applicants' further analysis of gene expression cassettes encoding various chimeric RXR polypeptides comprising a mouse RXRα isoform polypeptide fragment or a human RXRβ isoform polypeptide fragment and an LmUSP polypeptide fragment in mouse NIH3T3 cells.
Three individual clones of each chimeric RXR LBD of Table 1 were transfected into mouse NIH3T3 cells along with either GAL4CfEcR-DEF (switches 1.25-1.29 of Example 1; FIGS. 9 and 10) or GAL4DmEcR-DEF (switches 1.30-1.34 of Example 1; FIG. 11) and the reporter plasmid pFRLuc as described above. The transfected cells were cultured in the presence of either a) 0, 0.2, 1, or 10 μM non-steroidal ligand (FIG. 9), or b) 0, 0.2, 1, or 10 μM steroid ligand PonA or 0, 0.4, 0.2, 1, or 10 μM non-steroid ligand (FIGS. 10 and 11) for 48 hours. The reporter gene activity was measured and total RLU are shown. The number on top of each bar is the maximum fold induction for that treatment and is the mean of three replicates.

GAL4CfEcR-DEF [3] = assay: Transactivation of pFRLuc in NIH3T3 cells, VP16 RXR/USP constructs in partnership with GAL4CfEcR-DEF (FIG. 6); assay type: cell-based, Choristoneura fumiferana; details: for sensitivity of the switch to steroid versus non-steroid ligand: CfEcR/chimeric RXR-based switch (switch 1.13)
Procedure: as §1, §2

[4] = test system: TmEcR/chimeric RXR-based switch (switch 1.21); assay: Transactivation of pFRLuc in NIH3T3 cells, TmEcR with chimeric RXR-EF (FIG. 8); assay type: cell-based, Tenebrio molitor; details: switch 1.21, NIH3T3 cells
Procedure: as §1, §3

[5] = test system: GAL4CfEcR-DEF/VP16HsRXRβ-(1-8)-LmUSP-(9-12)-EF (βchimera 9; switch 1.27) gene switch; assay: Effect of 9-cis-retinoic acid as second ligand on transactivation of switch 1.27 in NIH3T3 cells (FIG. 12); assay type: cell-based, Choristoneura fumiferana; details: 0.04 μM non-steroid ligand, absence of 9-cis-retinoic acid
Procedure: In particular, Applicants have determined the effect of 9-cis-retinoic acid on the transactivation potential of the GAL4CfEcR-DEF/VP16HsRXRβ-(1-8)-LmUSP-(9-12)-EF (βchimera 9; switch 1.27) gene switch along with pFRLuc in NIH 3T3 cells in the presence of non-steroid (GSE) for 48 hours.
Briefly, GAL4CfEcR-DEF, pFRLuc and VP16HsRXRβ-(1-8)-LmUSP-(9-12)-EF (chimera #9) were transfected into NIH3T3 cells and the transfected cells were treated with 0, 0.04, 0.2, 1, 5 and 25 μM non-steroidal ligand (GSE) and 0, 1, 5 and 25 μM 9-cis-retinoic acid (Sigma Chemical Company). The reporter activity was measured at 48 hours after adding ligands.

Row | Molecule | sensitivity of the switch to steroid versus non-steroid ligand (GAL4DmEcR-DEF) | sensitivity of the switch to ligand [1] | response of EcR to ligand (GAL4CfEcR-DEF [2]) | sensitivity of the switch to steroid versus non-steroid ligand (GAL4CfEcR-DEF [3]) | sensitivity of the switch to ligand [4] | induction [5] | fold induction (GAL4DmEcR-DEF; partner for DmEcR, FIG. 7) [fold] | fold induction (GAL4CfEcR-DEF [3]; partner for CfEcR, FIG. 6)
1 | CCc1c(OC)cccc1C(=O)NN(C(=O)c1cc(C)cc(C)c1)C(C)(C)C [non-steroid, N-(2-ethyl-3-methoxybenzoyl)-N′-(3,5-dimethylbenzoyl)-N′-tert-butylhydrazine] | more sensitive to PonA than non-steroid | less sensitive to non-steroid | responded well to non-steroid but not to PonA | more sensitive to non-steroid than PonA | less sensitive to non-steroid | very little induction | – | –
2 | CC(C)CC[C@@H](O)[C@](C)(O)[C@H]1CC[C@@]2(O)C3=CC(=O)[C@@H]4C[C@@H](O)[C@@H](O)C[C@]4(C)[C@H]3CC[C@]12C [PonA, ponasterone A] | more sensitive to PonA than non-steroid | more sensitive to PonA | responded well to non-steroid but not to PonA | more sensitive to non-steroid than PonA | more sensitive to PonA | – | – | –
3 | MmRXRα-LmUSP chimera: chimeric RXR LBD: helices 1-7 of MmRXRα-EF and helices 8-12 of LmUSP-EF (SEQ ID NO: 45), fused to VP16 (protein) MGPKKKRKVAPPTDVSLGDELHLDGEDVAMAHADALDDFDLDMLGDGDSPGPGFTPHDSAPYGALDMADFEFEQMFTDALGIDEYGGEFPANEDMPVEKILEAELAVEPKTETYVEANMGLNPSSPNDPVTNICQAADKQLFTLVEWAKRIPHFSELPLDDQVILLRAGWNELLIASFSHRSIAVKDGILLATGLHVHRNSAHSAGVGAIFDRVLTELVSKMRDMQMDKTELGCLRSVILFNPEVRGLKSAQEVELLREKVYAALEEYTRTTHPDEPGRFAKLLLRLPSLRSIGLKCLEHLFFFRLIGDVPIDTFLMEMLESPSDS | – | – | – | – | – | – | 1759 | 11,000 fold

Source: patent US8236556B2, “Method of modulating gene expression using an ecdysone receptor-based inducible gene expression system” (Intrexon Corporation, priority 2001, dated 2012)
